Test results published in patent EP2758382B1, “HETEROCYCLOCARBONYLAMINOTHIAZOLES, COSMETIC AND DERMATOLOGICAL PREPARATIONS CONTAINING THEM, AND THEIR USE FOR THE TREATMENT AND PROPHYLAXIS OF UNWANTED PIGMENTATION OF THE SKIN” (Beiersdorf AG, priority 2011, dated 2013).

Molecular target: T1, humane Tyrosinase (Homo sapiens, UniProt P14679)
T1 sequence (P14679 19-529): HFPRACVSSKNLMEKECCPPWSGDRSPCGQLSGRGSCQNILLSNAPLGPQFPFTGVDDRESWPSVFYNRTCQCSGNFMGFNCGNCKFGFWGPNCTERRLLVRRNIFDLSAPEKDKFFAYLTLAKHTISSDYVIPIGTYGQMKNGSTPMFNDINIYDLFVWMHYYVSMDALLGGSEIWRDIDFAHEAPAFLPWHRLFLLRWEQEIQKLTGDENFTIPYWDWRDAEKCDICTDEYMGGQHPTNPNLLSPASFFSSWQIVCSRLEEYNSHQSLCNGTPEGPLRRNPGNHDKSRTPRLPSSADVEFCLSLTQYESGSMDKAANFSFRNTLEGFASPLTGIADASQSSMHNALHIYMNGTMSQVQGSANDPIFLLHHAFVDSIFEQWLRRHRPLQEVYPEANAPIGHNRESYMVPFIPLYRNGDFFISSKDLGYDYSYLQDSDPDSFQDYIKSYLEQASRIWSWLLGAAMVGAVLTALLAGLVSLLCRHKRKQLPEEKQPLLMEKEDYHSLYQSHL
Assay: Enzyme test: conversion of L-DOPA to L-Dopachinon by human tyrosinase, MBTH detection, absorption at 490 nm
Type: biochemical
Conditions: Konzentration 10 µg/mL; substrate L-DOPA
Source text: Die Wirksamkeit der Thiazole wurde mit einem Enzymtest belegt, in der Umsatz von L-DOPA zu L-Dopachinon durch eine humane Tyrosinase gemessen wurde. Bei dieser literaturbekannten Methode (Winder, A.J. and Harris, H., New assays for the tyrosine hydroxylase and dopa oxidase activities of tyrosinase. Eur. J. Blochem. (1991), 198, 317-26) wird das Reaktionsprodukt L-Dopaquinone mit MBTH (3-methyl-2-benzothiazoline hydrazone) zu einer pinkfarbenen Substanz umgesetzt, deren Zunahme über die Zeit durch Absorption bei 490 nm gemessen wird. In Tabelle ein sind Wirksamkeitsdaten für einige der beanspruchten Substanzen beispielhaft dargestellt. Daraus lässt sich schließen, dass die erfindungsgemäßen Substanzen äußerst effektive pigmentierungs-inhibierende Substanzen sind.

| Inhibition (% der Kontrolle) | SMILES |
| --- | --- |
| 91 | CCN1CCN(c2nc(-c3ccc(O)cc3O)cs2)CC1 [4-(2-(4-Ethylpiperazin-1-yl)thiazol-4-yl)benzen-1,3-diol] |
| 93 | Oc1ccc(-c2csc(N3CCNCC3)n2)c(O)c1 [4-(2-(Piperazin-1-yl)thiazol-4-yl)benzen-1,3-diol] |
| 82 | Oc1ccc(-c2csc(N3CCCCC3)n2)c(O)c1 [4-(2-(Piperidin-1-yl)thiazol-4-yl)benzen-1,3-diol] |
| 91 | Oc1ccc(-c2csc(N3CCOCC3)n2)c(O)c1 [4-(2-Morpholinothiazol-4-yl)benzen-1,3-diol] |
| 94 | CCN1CCN(C(=O)Nc2nc(-c3ccc(O)cc3O)cs2)CC1 [N-(4-(2,4-dihydroxyphenyl)thiazol-2-yl)-4-ethylpiperazin-1-carboxamid] |
| 97 | O=C(Nc1nc(-c2ccc(O)cc2O)cs1)N1CCOCC1 [N-(4-(2,4-dihydroxyphenyl)thiazol-2-yl)morpholin-4-carboxamid] |
| 94 | O=C(Nc1nc(-c2ccc(O)cc2O)cs1)N1CCNCC1 [N-(4-(2,4-dihydroxyphenyl)thiazol-2-yl)piperazin-1-carboxamid] |
| 97 | O=C(Nc1nc(-c2ccc(O)cc2O)cs1)N1CCCCC1 [N-(4-(2,4-dihydroxyphenyl)thiazol-2-yl)piperidin-1-carboxamid] |
